The target of test [1] is T1, Thromboxane A2 receptor (Homo sapiens, UniProt P21731).
T1 sequence (P21731 whole entry): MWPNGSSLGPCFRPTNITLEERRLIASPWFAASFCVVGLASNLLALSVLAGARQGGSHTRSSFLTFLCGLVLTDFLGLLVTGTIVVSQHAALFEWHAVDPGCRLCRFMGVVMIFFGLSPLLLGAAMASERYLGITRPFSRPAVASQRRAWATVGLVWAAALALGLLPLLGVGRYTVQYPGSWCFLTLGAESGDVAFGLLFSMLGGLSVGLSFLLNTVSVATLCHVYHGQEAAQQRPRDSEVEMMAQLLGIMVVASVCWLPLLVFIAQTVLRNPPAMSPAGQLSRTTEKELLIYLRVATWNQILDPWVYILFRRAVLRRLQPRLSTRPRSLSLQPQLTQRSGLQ
It is filed as functional, cell-based.

In test [2] the target is T2, Alpha-2A adrenergic receptor (Homo sapiens, UniProt P08913).
T2 sequence (P08913 whole entry): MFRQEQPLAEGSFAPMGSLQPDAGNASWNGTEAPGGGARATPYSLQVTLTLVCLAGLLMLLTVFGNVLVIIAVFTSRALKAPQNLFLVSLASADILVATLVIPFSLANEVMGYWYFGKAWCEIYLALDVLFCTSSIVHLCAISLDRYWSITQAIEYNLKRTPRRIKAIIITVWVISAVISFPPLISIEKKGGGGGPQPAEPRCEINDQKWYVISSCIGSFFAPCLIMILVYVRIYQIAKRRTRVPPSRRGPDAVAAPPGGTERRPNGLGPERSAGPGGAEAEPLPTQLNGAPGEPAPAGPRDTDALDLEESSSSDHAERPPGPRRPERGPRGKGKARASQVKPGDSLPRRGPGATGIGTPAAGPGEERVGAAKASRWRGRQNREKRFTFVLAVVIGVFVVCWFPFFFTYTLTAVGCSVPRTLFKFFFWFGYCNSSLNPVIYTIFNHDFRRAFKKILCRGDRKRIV

Test [3] has as its target T3, Alpha-1A adrenergic receptor (Homo sapiens, UniProt P35348).
T3 sequence (P35348 whole entry): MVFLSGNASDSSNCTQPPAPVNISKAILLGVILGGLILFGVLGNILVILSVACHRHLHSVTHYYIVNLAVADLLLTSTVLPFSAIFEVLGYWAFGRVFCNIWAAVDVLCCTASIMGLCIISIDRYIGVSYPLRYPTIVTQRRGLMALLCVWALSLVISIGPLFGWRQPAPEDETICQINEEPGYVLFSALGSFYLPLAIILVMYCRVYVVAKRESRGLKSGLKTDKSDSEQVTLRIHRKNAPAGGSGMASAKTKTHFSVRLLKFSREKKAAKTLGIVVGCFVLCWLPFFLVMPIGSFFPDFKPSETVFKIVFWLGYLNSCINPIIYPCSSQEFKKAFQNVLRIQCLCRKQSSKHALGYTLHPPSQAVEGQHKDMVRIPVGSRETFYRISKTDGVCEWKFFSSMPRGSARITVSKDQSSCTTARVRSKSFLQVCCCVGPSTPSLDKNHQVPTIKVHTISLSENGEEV
It is filed as functional, cell-based.

The target in test [4] is T4, 5-hydroxytryptamine receptor 1A (Homo sapiens, UniProt P08908).
T4 sequence (P08908 whole entry): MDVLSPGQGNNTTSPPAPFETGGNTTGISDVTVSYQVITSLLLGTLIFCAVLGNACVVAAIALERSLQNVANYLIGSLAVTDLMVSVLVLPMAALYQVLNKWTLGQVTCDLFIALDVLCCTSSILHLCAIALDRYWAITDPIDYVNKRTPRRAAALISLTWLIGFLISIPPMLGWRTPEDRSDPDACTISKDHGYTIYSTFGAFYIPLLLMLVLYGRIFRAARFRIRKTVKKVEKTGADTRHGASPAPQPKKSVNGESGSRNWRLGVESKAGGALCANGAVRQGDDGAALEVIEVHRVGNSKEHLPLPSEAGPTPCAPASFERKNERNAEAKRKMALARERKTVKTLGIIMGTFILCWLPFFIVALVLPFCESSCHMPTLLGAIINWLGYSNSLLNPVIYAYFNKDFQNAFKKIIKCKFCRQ

Test [5] concerns the target T5, Muscarinic acetylcholine receptor M2 (Homo sapiens, UniProt P08172).
T5 sequence (P08172 whole entry): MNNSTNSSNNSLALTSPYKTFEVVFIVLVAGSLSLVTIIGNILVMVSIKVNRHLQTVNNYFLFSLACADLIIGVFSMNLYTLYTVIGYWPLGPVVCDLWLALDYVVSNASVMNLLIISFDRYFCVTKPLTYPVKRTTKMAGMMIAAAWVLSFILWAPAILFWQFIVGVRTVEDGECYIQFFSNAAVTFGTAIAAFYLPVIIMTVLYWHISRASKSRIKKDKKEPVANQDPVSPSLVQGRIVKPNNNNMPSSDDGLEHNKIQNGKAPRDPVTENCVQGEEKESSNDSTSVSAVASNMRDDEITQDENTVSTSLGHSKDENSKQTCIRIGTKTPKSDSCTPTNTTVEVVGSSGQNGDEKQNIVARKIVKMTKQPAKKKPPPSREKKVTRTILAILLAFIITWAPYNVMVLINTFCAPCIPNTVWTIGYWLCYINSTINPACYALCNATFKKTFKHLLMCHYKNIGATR

Test [6] has as its target Gamma-aminobutyric acid receptor subunit alpha-1 (Rattus norvegicus, UniProt P62813).
For test [7], the target named is Vasopressin V2 receptor (Homo sapiens, UniProt P30518).
Vasopressin V2 receptor, sequence (P30518 whole entry): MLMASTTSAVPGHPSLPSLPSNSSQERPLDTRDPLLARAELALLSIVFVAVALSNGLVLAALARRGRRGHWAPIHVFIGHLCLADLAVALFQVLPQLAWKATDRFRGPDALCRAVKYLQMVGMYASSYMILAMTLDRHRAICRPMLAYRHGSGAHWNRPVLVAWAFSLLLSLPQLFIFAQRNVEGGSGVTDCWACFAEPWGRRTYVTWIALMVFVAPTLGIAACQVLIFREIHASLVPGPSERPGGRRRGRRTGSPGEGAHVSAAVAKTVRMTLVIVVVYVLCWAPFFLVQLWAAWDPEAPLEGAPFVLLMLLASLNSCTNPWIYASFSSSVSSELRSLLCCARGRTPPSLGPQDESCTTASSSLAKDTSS
The target of test [8] is Cannabinoid receptor 1 (Homo sapiens, UniProt P21554). It is filed as functional, cell-based.
Cannabinoid receptor 1, sequence (P21554 whole entry): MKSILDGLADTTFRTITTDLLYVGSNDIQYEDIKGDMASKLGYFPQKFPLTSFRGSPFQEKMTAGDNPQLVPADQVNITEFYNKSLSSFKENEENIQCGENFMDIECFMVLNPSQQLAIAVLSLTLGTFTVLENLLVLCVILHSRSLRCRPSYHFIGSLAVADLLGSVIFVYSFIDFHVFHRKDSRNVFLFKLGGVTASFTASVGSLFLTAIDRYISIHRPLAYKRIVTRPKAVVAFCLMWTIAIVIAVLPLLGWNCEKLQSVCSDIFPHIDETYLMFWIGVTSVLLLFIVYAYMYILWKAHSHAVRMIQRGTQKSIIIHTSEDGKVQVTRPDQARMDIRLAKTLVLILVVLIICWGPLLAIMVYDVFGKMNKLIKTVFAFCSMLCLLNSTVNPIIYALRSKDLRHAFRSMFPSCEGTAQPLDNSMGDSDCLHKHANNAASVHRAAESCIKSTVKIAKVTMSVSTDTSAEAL
Further: assay procedure not described here.

Gamma-aminobutyric acid receptor subunit alpha-1, sequence (P62813 whole entry): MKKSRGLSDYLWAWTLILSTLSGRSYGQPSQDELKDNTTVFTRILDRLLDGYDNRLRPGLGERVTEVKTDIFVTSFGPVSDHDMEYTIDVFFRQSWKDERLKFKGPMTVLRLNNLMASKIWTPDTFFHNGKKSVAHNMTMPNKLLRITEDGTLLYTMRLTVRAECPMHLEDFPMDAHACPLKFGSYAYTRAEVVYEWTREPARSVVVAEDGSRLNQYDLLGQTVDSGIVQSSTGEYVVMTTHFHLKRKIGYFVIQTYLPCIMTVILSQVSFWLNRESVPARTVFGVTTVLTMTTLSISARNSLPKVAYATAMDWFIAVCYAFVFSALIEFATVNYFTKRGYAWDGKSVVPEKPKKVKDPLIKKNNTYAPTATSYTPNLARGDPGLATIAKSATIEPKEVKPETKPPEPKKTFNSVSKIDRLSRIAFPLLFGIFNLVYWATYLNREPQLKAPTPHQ

As usually defined, the AC50 is the concentration at which the activity in the assay is half-maximal. For `OC[C@H]1NC[C@H](O)[C@@H](O)[C@H]1O`, the AC50 in test [1], in test [2], in test [3], in test [4] and in test [5] was over 30 µM throughout.

In the case of `O=C(O)[C@@H](S)[C@@H](S)C(=O)O`, the AC50 in test [1], in test [2], in test [4] and in test [5] was over 30 µM in each case.

With `CC#CC(=O)N1CCC[C@H]1c1nc(-c2ccc(C(=O)Nc3ccccn3)cc2)c2c(N)nccn12` [ACALABRUTINIB], the AC50 in test [1], in test [2], in test [3], in test [4] and in test [5] was over 30 µM throughout.

In the case of `C=CCOc1ccc(CC(=O)O)cc1Cl` [ALCLOFENAC], the AC50 in test [1], in test [2], in test [3], in test [4] and in test [5] was over 30 µM throughout.

For `NCCCCCC(=O)O` [AMINOCAPROIC ACID], the AC50 in test [6] and in test [7] was over 10 µM in each case.

With `NC(=O)C1(N2CCCCC2)CCN(CCCN2c3ccccc3CCc3ccccc32)CC1` [CARPIPRAMINE], the AC50 in test [1] is 24.6 µM; in test [2], 0.208 µM; in test [3], 13.7 µM; in test [4], 2.83 µM; in test [5], 4.39 µM.

`CN1CCN(C(c2ccccc2)c2ccc(Cl)cc2)CC1` (stereo not drawn) [CHLORCYCLIZINE]: the AC50 in test [1] was 11.3 µM; in test [2] it was 3.1 µM; in test [3] it was over 30 µM; in test [4], 13.9 µM; in test [5], 0.505 µM.

With `CCCCCCCCCCCCCCCC(=O)OC[C@H](COP(=O)([O-])OCC[N+](C)(C)C)OC(=O)CCCCCCCCCCCCCCC` [COLFOSCERIL PALMITATE], the AC50 in test [1], in test [2], in test [3], in test [4] and in test [5] was over 30 µM throughout.

`O=P1(N(CCCl)CCCl)NCCCO1` (stereo not drawn) [CYCLOPHOSPHAMIDE ANHYDROUS]: the AC50 in test [1], in test [2], in test [3], in test [4] and in test [5] was over 30 µM throughout.

On to `CC(C)Nc1cccnc1N1CCN(C(=O)c2cc3cc(NS(C)(=O)=O)ccc3[nH]2)CC1` [DELAVIRDINE], for which the AC50 in test [1] is over 30 µM; in test [2], 13.4 µM; in test [3], over 30 µM; in test [4] it was over 30 µM; in test [5], over 30 µM.

`C[C@@H](CN1CC(=O)NC(=O)C1)N1CC(=O)NC(=O)C1` [DEXRAZOXANE]: the AC50 in test [1], in test [2], in test [3], in test [4] and in test [5] was over 30 µM each time.

As to `C[C@]12CC[C@@H]3c4ccc(OC(=O)N(CCCl)CCCl)cc4CC[C@H]3[C@@H]1CC[C@@H]2OP(=O)(O)O` [ESTRAMUSTINE PHOSPHATE], the AC50 in test [1], in test [2], in test [3], in test [4] and in test [5] was over 30 µM each time.

For the compound `O=c1[nH]c2ccccc2n1CCN1CCN(c2cccc(C(F)(F)F)c2)CC1` [FLIBANSERIN], the AC50 in test [1] is over 30 µM; in test [2] it was 10.3 µM; in test [3], over 30 µM; in test [4], 0.003 µM; in test [5], over 30 µM.

Turning to `O=C(O)[C@H](O)[C@@H](O)[C@H](O)[C@H](O)CO` [GLUCONIC ACID], the AC50 in test [1], in test [2], in test [3], in test [4] and in test [5] was over 30 µM throughout.

`N=C(N)NCC1COc2ccccc2O1` (stereo not drawn) [GUANOXAN]: the AC50 in test [1] was over 30 µM; in test [2] it was 0.15 µM; in test [3], over 30 µM; in test [4] it was 1.27 µM; in test [5], over 30 µM.

Regarding `CCN(CCO)CCCC(C)Nc1ccnc2cc(Cl)ccc12` (stereo not drawn) [HYDROXYCHLOROQUINE], the AC50 in test [6] and in test [7] was over 10 µM throughout.

Regarding `N#Cc1ccnc(N2C(=O)CC[C@H]2C(=O)N(c2cncc(F)c2)[C@H](C(=O)NC2CC(F)(F)C2)c2ccccc2Cl)c1` [IVOSIDENIB], the AC50 in test [1], in test [2], in test [3], in test [4] and in test [5] was over 30 µM in each case.

On to `CNC1(c2ccccc2Cl)CCCCC1=O` (stereo not drawn) [KETAMINE], for which the AC50 in test [1], in test [2], in test [3], in test [4] and in test [5] was over 30 µM throughout.

Turning to `O=C(c1ccccc1)c1ccc2n1CCC2C(=O)O` (stereo not drawn) [KETOROLAC], the AC50 in test [6] was over 30 µM; in test [7], over 10 µM.

Regarding `O=NN(CCCl)C(=O)NC1CCCCC1` [LOMUSTINE], the AC50 is over 30 µM in test [1]; 3.5 µM in test [2]; 14.1 µM in test [3]; over 30 µM in test [4]; over 30 µM in test [5].

For `O=C1[C@@H]2[C@H]3CC[C@H](C3)[C@@H]2C(=O)N1C[C@@H]1CCCC[C@H]1CN1CCN(c2nsc3ccccc23)CC1` [LURASIDONE], the AC50 in test [1] and in test [8] was over 30 µM in each case.

As for `CCCCCCO[C@@H](C)c1cccc(-c2csc(NC(=O)c3cc(Cl)c(/C=C(\C)C(=O)O)c(Cl)c3)n2)c1OC` [LUSUTROMBOPAG], the AC50 was over 30 µM in test [1]; over 30 µM in test [2]; over 30 µM in test [3]; 6.96 µM in test [4]; over 30 µM in test [5].

For `Cc1cc(C)cc(OCC2CNC(=O)O2)c1` (stereo not drawn) [METAXALONE], the AC50 in test [1], in test [2], in test [3], in test [4] and in test [5] was over 30 µM in each case.

For the compound `CO[C@@]1(NC(=O)C(C(=O)O)c2ccc(O)cc2)C(=O)N2C(C(=O)O)=C(CSc3nnnn3C)CO[C@@H]21` (stereo partly drawn) [MOXALACTAM], the AC50 in test [1], in test [2], in test [3], in test [4] and in test [5] was over 30 µM throughout.

Regarding `CCC1(c2ccccc2)C(=O)NCNC1=O` [PRIMIDONE], the AC50 in test [7] is over 10 µM.

The record behind these values is ChEMBL document CHEMBL5291721, “A preclinical secondary pharmacology resource illuminates target-adverse drug reaction associations of marketed drugs” (Nat Commun, 2023).
